In PubChem BioAssay (NCI) one finds TGI data, which are given here for eight molecules.

Among the test systems are MDA-N; NCI/ADR-RES ovarian; EKVX NSCLC; OVCAR-8 ovarian; OVCAR-5 ovarian; NCI-H23 lung; ACHN renal; CCRF-CEM leukemia; HL-60(TB) leukemia; SR leukemia.
Holding throughout (experiment): DTP human tumour cell line panel, 48 h

SMILES strings stand for the structures.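 Compound exposure: 48 hours, 5 concentrations, 96-well plates. Definition used: TGI = concentration required for complete inhibition of growth.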

Usually TGI stands for the concentration at which net growth stops. A higher TGI goes with less potent growth arrest. For `CC(=O)c1cccn1/C=C(\OC(=O)OC(C)(C)C)c1ccc[nH]1`, the TGI in the experiment on MDA-N, in the experiment with NCI/ADR-RES ovarian, in the experiment on EKVX NSCLC, with OVCAR-8 ovarian, in the experiment on OVCAR-5 ovarian and in the experiment on NCI-H23 lung was above 100 µM each time. Further, the TGI with ACHN renal was above 100 µM; in the experiment with CCRF-CEM leukemia, above 100 µM; in the experiment on HL-60(TB) leukemia, 98.1 µM; in the experiment with SR leukemia, above 100 µM.

As for `CC(O)CCCOC(c1ccccc1)(c1ccccc1)c1ccccc1` (stereo not given), the TGI with MDA-N came to 31.7 µM; in the experiment on NCI/ADR-RES ovarian, 24 µM; in the experiment on EKVX NSCLC, 28.1 µM; with OVCAR-8 ovarian, 28.2 µM; with OVCAR-5 ovarian, 30.5 µM; in the experiment with NCI-H23 lung it was 27.6 µM. For the same molecule, the TGI was 27.8 µM with ACHN renal, above 67.2 µM in the experiment on CCRF-CEM leukemia, above 55.1 µM in the experiment with HL-60(TB) leukemia and above 57.4 µM in the experiment on SR leukemia.

As to `C=CCNC(=S)N=Nc1c(O)[nH]c2ccc([N+](=O)[O-])cc12`, the TGI in the experiment on MDA-N, in the experiment with NCI/ADR-RES ovarian, with EKVX NSCLC, in the experiment with OVCAR-8 ovarian, in the experiment on OVCAR-5 ovarian and with NCI-H23 lung was above 100 µM throughout. Also, the TGI in the experiment on ACHN renal was above 100 µM; in the experiment with CCRF-CEM leukemia it was 41.5 µM; in the experiment on HL-60(TB) leukemia, above 100 µM; in the experiment on SR leukemia, above 100 µM.

Regarding `COC(C)(C)[C@@H](O)[C@H]1C[C@H](C)[C@@]2(CC[C@]3(C)[C@@H]2CC[C@@H]2[C@@]4(C)CC[C@@H](OC(C)=O)C(C)(C)[C@@H]4C[C@@H](OC4OC(COC(C)=O)C(O)C(O)C4O)[C@]23C)O1` (stereo not given in full), the TGI in the experiment on MDA-N worked out at 17.9 µM; in the experiment with NCI/ADR-RES ovarian, 22.5 µM; in the experiment on EKVX NSCLC, 19.5 µM; in the experiment with OVCAR-8 ovarian it was 18.7 µM; in the experiment with OVCAR-5 ovarian, 7.18 µM; in the experiment with NCI-H23 lung, 25.8 µM. Moreover, the TGI in the experiment on ACHN renal is 18.3 µM; with CCRF-CEM leukemia, above 37 µM; in the experiment on HL-60(TB) leukemia, 4.63 µM; in the experiment on SR leukemia, 5.25 µM.

In the case of `NCCCN1CCN(CCCNc2ccc3nnn4c5ccccc5c(=O)c2c34)CC1`, the TGI with MDA-N is 31 µM; with NCI/ADR-RES ovarian, above 100 µM; with EKVX NSCLC, 41.1 µM; in the experiment on OVCAR-8 ovarian it was above 100 µM; in the experiment on OVCAR-5 ovarian it was above 100 µM; with NCI-H23 lung, 33.3 µM. For the same molecule, the TGI in the experiment with ACHN renal was 73.7 µM; with CCRF-CEM leukemia, 35.7 µM; in the experiment with HL-60(TB) leukemia, above 100 µM; with SR leukemia, above 100 µM.

Consider `COC(=O)c1cc2c(cc1CC1Cc3cc4c(cc3C1)CCC4)CCC2`, for which the TGI in the experiment on MDA-N, in the experiment with NCI/ADR-RES ovarian, with EKVX NSCLC, in the experiment on OVCAR-8 ovarian, with OVCAR-5 ovarian and in the experiment on NCI-H23 lung was above 100 µM each time. Besides, the TGI is above 100 µM in the experiment on ACHN renal, 45.3 µM in the experiment on CCRF-CEM leukemia, 32.7 µM in the experiment on HL-60(TB) leukemia and 47.2 µM with SR leukemia.

`COC(=O)CCc1cc(OC)c2c(c1)[C@H](C(=O)OC)[C@@H](c1ccc(O)c(OC)c1)O2`: the TGI was 44.6 µM with MDA-N; above 100 µM in the experiment with NCI/ADR-RES ovarian; above 100 µM in the experiment with EKVX NSCLC; above 100 µM with OVCAR-8 ovarian; above 100 µM with OVCAR-5 ovarian; above 100 µM in the experiment with NCI-H23 lung. Further, the TGI in the experiment with ACHN renal was above 100 µM; with CCRF-CEM leukemia it was above 100 µM; in the experiment with HL-60(TB) leukemia, 36 µM; in the experiment on SR leukemia it was 19.1 µM.

For the molecule `CC(C)(C)OC(=O)NCCC(N)=S`, the TGI in the experiment on MDA-N, in the experiment with NCI/ADR-RES ovarian, in the experiment with EKVX NSCLC, in the experiment with OVCAR-8 ovarian, with OVCAR-5 ovarian and in the experiment with NCI-H23 lung was above 100 µM in each case. Also, the TGI in the experiment with ACHN renal, with CCRF-CEM leukemia, with HL-60(TB) leukemia and in the experiment with SR leukemia was above 100 µM throughout.
